Experimental data from patent US8841341B2, “Pharmaceutical composition effective against biofilms” (Helmholtz-Zentrum fuer Infektionsforschung GmbH, priority 2007, dated 2014).
“Also recorded” adds a separate entry of the source. Where two headings read alike, the source gives them in different places.

Tests used:
Format in all cases: cell-based
[1] = system: E. coli; experiment: Antibiotic activity against E. coli
[2] = system: E. coli tolC; experiment: Antibiotic activity against E. coli tolC in vitro; settings: E. coli tolC has an impaired cell wall
[3] = system: Streptococcus mutans wild-type strain; experiment: Inhibition of biofilm formation in in vitro culture (live/dead BacLight staining, microtiter plate); settings: for inhibition at 0.025 µg/mL: Carolacton 0.025 μg/mL; for inhibition at 0.25 µg/mL: Carolacton 0.25 μg/mL; for inhibition at 2.5 µg/mL: Carolacton 2.5 μg/mL; for inhibition at 50 µg/mL: Carolacton 50 μg/mL
Description: (§1) Using Streptococcus mutans as a model organism that generates biofilms, overnight cultures of Streptococcus mutans in THB medium (Todd Hewitt Broth, available from Bacto) were diluted 1:100 into fresh THB medium containing 0.5% wt/vol sucrose. For anaerobic growth, medium was flushed with nitrogen before use. Aliquots of the diluted culture (95 μL) of Example 1 were distributed into the wells of a 96-well polystyrene flat bottom microtiter plate, containing 5 μL of different concentrations of test compound or alternatively, 5 μL methanol as a control. Microtiter plates were incubated under aerobic and an anaerobic conditions, respectively, at 37° C. for approximately 24 hours. For non-biofilm forming growth, e.g. planctonic growth, cells were grown in THB without the additional sucrose under otherwise identical conditions.
(§2) Bacterial growth was monitored in the microtiter plate by optical density readings at 620 nm. Quantitative bio film formation was determined using the live/dead bacLight bacterial viability staining kit (available under catalogue number L13152 from Molecular Probes, Eugene, Oreg., USA). The kit incorporates two nucleic acid stains that differ in spectral characteristics and their ability to penetrate bacterial cell membranes. When used alone, the green fluorescing stain Cyto9 generally labels all bacteria in the population, whereas the red fluorescing stain propidium-iodide only penetrates bacteria having damaged membranes, causing a reduction in the Cyto9 stain fluorescence when both dyes are present.
For staining, the culture medium was removed from the microtiter plate wells and cells were washed once with 100 μL fresh THB medium to remove planctonic growing and loosely bound cells. According to all the manufacturer's instructions, the adherent bacteria, regarded as the bio film, were then stained for 15 min in the dark at room temperature, using 100 μL of a 1:1 mixture of the two dye components. Fluorescence was measured in a microtiter plate reader (Wallac Victor 1420 multilabel counter, PerkinElmer Life Sciences), equipped with detectors and filter sets for monitoring red and green fluorescence.
Quantitative bio film formation was calculated by dividing the fluorescence intensities of the stained biofilms for each well of the microtiter plate at an emission of 530 nm (green) by the fluorescence intensity at the emission of 630 nm (red). As 100% activity, the results obtained from wells only containing methanol as the control, instead of a test compound, was used. Under anaerobic conditions, Carolacton inhibited formation of biofilm from Streptococcus mutans at very low concentrations.
For a determination of bio film inhibition in relation to the control, the activity value for the Carolacton comprising test well was subtracted from the value obtained for the control. At concentrations of 2.5 and 0.25 μg/mL Carolacton, respectively, bio film formation by Streptococcus mutans wild-type strain was inhibited by about 60% under anaerobic conditions.

[4] = system: Streptococcus mutans com E (−) mutant; experiment: Inhibition of biofilm formation, quorum sensing negative mutant com E (-)
[5] = system: Streptococcus mutans com D (−) mutant; experiment: Inhibition of biofilm formation, quorum sensing negative mutant com D (-); settings: read-out: Biofilm inhibition, com D (−) mutant
Description: as §1
as §2, with “The kit incorporates two nucleic acid stains that differ in spectral characteristics and their ability to penetrate bacterial cell membranes.” left out, “present. […]” for “present.”

[6] = system: Streptococcus mutans com C (−) mutant; experiment: Biofilm formation, quorum sensing negative mutant com C (-); settings: same testing conditions
Description: as §1
as §2, with “The kit incorporates two nucleic acid stains that differ in spectral characteristics and their ability to penetrate bacterial cell membranes.” left out, “present. […]” for “present.”

[7] = system: Streptococcus mutans luxS mutant; experiment: Inhibition of biofilm formation, luxS mutant; settings: read-out: Biofilm inhibition, luxS mutant
Description: as §1
as §2, with “The kit incorporates two nucleic acid stains that differ in spectral characteristics and their ability to penetrate bacterial cell membranes.” left out, “present. […]” for “present.”

[8] = system: Streptococcus mutans planctonic cultures; experiment: Planctonic growth (optical density readings at 620 nm); settings: THB without additional sucrose
Description: as §1
as §2, with “The kit incorporates two nucleic acid stains that differ in spectral characteristics and their ability to penetrate bacterial cell membranes.” left out

[9] = Streptococcus mutans, aerobic, read-out: Biofilm inhibition (%) under aerobic conditions
[10] = Streptococcus mutans, anaerobic, read-out: Biofilm inhibition (%) under anaerobic conditions

For `COC(CC(=O)O)C(C)C(=O)C(C)/C=C(\C)C1OC(=O)C(O)C(O)/C=C/C(C)CCCC1C` (stereo not shown) [Carolacton], the “Concentration needed to inhibit E. coli” value [1] was “above 40 μg/mL”, the “Concentration with antibiotic activity against E. coli tolC” value [2] was 60 ng/mL and the inhibition at 0.025 µg/mL [3, 9] was 21%. It also gave an inhibition at 0.25 µg/mL [3, 9] of 21%, an inhibition at 2.5 µg/mL [3, 9] of 19% and an inhibition at 50 µg/mL [3, 9] of 1%. The inhibition at 0.0025 µg/mL ([3]; Streptococcus mutans, anaerobic, Carolacton 0.0025 μg/mL, read-out: Biofilm inhibition (%) under anaerobic conditions) was -7%, the inhibition at 0.005 µg/mL ([3]; Streptococcus mutans, anaerobic, Carolacton 0.005 μg/mL, read-out: Biofilm inhibition (%) under anaerobic conditions) was 35% and the inhibition at 0.025 µg/mL [3, 10] was roughly 65%. It also gave an inhibition at 0.05 µg/mL ([3]; Streptococcus mutans, anaerobic, Carolacton 0.05 μg/mL, read-out: Biofilm inhibition (%) under anaerobic conditions) of 60%, an inhibition at 0.25 µg/mL [3, 10] of roughly 60% and an inhibition at 0.25 µg/mL ([3]; Streptococcus mutans, anaerobic, second experiment, read-out: Biofilm inhibition (%) under anaerobic conditions) of 77%. It also gave an inhibition at 2.5 µg/mL [3, 10] of roughly 60%, an inhibition at 25 µg/mL ([3]; Streptococcus mutans, anaerobic, Carolacton 25 μg/mL, read-out: Biofilm inhibition (%) under anaerobic conditions) of 66% and an inhibition at 50 µg/mL [3, 10] of 82%. The “Lowest concentration achieving inhibition of biofilm generation” value ([3]; in vitro cultures) was 0.005 µg/mL, the “Biofilm inhibition, com E (−) mutant” value ([4]; Carolacton 2.5 μg/mL, same testing conditions) was 5% and the inhibition at 0.25 µg/mL ([4]; Streptococcus mutans, read-out: Biofilm inhibition, com E (−) mutant) was 12%. The inhibition at 0.25 µg/mL [5] was roughly 10%, the inhibition at 2.5 µg/mL [5] was roughly 10% and the “Induction of biofilm formation, com C (−) mutant” value ([6]; Carolacton 0.25 μg/mL) was 150%. For the same compound, the “Induction of biofilm formation, com C (−) mutant” value ([6]; Carolacton 2.5 μg/mL) was 200%, the inhibition at 2.5 µg/mL [7] was 59% and the inhibition at 40.25 µg/mL [7] was 46%. The “Influence on planctonic growth” value [8] was “only slightly influenced; also recorded: not influenced by Carolacton, or only marginally reduced”.
